Reference: patent US20260199377A1, “CANNABINOIDS FOR TREATING ESSENTIAL TREMOR IN PATIENTS” (Jazz Pharmaceuticals Research UK Limited, priority 2022, published 2026)
Where a name gives a salt, the structure may show the parent alone.

Legend:
[1] = system: Harmaline-Induced Essential Tremor in Rats; assay: Harmaline-induced essential tremor in rats (observational score, Tremor Monitor waveforms); format: in vivo, rats (male; Sprague Dawley); conditions: for tremor, as indexed by OS, TI, and MPP: overall conclusion, propranolol 20 mg/kg
Method: Subjects: Naïve rats (114; male; Sprague Dawley; aged 6-9 weeks; weight 190-369 g) were obtained from Charles River UK and acclimated to the testing room in home cages (standard caging; housed in groups of 4) up to 7 days following arrival at the test facility, with free access to food (Certified Rodent CR 14% Protein Rodent Diet, LabDiet® 5CR4) and water on a 12 h/12 h light/dark cycle from arrival (lights on at 7:00 AM). All subjects were weighed at the beginning of the study and assigned to treatment groups.
Tremor Monitor™ (“TM”): A TM from San Diego Instruments was obtained to measure movement waveforms (i.e., amplitude (“A”) (dBV) as a function of frequency (“f”) (Hz)) (threshold 10 dBV).
NBX/Harmaline Experimental Group (number of subjects (“n”)=36 (12 at each dose of NBX)): Subjects were habituated to the TM for 2×5 minutes (with a 20 minute gap between the two 5 minute periods). The next day, 5.2, 10.4, or 20.8 mg/kg (total THC and CBD) NBX was administered p.o. (oral gavage) in sesame oil to the subjects at 2 mL/kg. 100 minutes after the NBX was administered, 10 mg/kg of harmaline was administered i.p. in water to the subjects at 5 mL/kg. 20, 40, and 60 minutes after the harmaline was administered to the subjects, the subjects were observationally scored in their home cages on a scale from 0 to 4 (wherein scores (“observational scores” (“OS”)) of 0, 1, 2, 3, and 4 correspond, as summarized in TABLE A below, to “No tremor”, “Occasional tremor affecting only head and neck”, “Intermittent tremor affecting whole body”, “Persistent tremor affecting whole body and tail”, and “Severe tremor rendering subject unable to stand”, respectively) and, immediately thereafter, movement waveforms of the subjects were measured with the TM for 5 minutes each.
Thereafter, the administration of the harmaline and NBX (“acute treatment”) was continued once per day until the harmaline and NBX had been administered for 10 days (“sub-chronic treatment”). 20, 40, and 60 minutes after the final administration of the NBX and harmaline, the subjects were again observationally scored on the scale described (and summarized in TABLE A) above and movement waveforms of the subjects were again measured with the TM for 5 minutes each.
Propranolol/Harmaline Comparison Group (n=12): The Experimental Group protocol was repeated, except for administering, instead of NBX, 20 mg/kg of propranolol i.p. 30 minutes before the harmaline was administered (as the maximum effect of propranolol can be observed approximately 30 minutes after administration).
Vehicle/Harmaline Control Group (n=12): The Experimental Group protocol was repeated, except for administering, instead of NBX, sesame oil (vehicle) at 2 mL/kg.
Calculations and Statistical Analysis: For each movement waveform measured, the following values were calculated: average amplitude (“A”) (average power) for the range of frequency (“f”) from
Tremor Index (“TI”=AP2−AP1); and Motion Power Percentage (“MPP” (%)=AP2/(AP1+AP2)×100). Further, for each subject, the following values were calculated: total number of tremor events (10 dBV threshold; sum of 20-, 40-, and 60-minute data); total average length of one tremor event (average of 20-, 40-, and 60-minute data); and total cumulative time of tremor events (sum of 20-, 40-, and 60-minute data), wherein “total” refers to combination of the 20-minute data, the 40-minute data, and the 60-minute data (e.g., “total cumulative time of tremor events” means total of the cumulative time of tremor events for the 20-minute data, the cumulative time of tremor events for the 40-minute data, and the cumulative time of tremor events for the 60-minute data). For the 20-, 40-, and 60-minute data independently, OS, MPP, and TI were analyzed by Kruskal-Wallis followed by Dunn's multiple comparison test. […]

rats = assay: Propranolol/Vehicle and NBX/Vehicle control groups (saline instead of harmaline), tremor measures; format: in vivo, rats (male; Sprague Dawley); conditions: vs Vehicle/Vehicle group; for Tremor Index (TI) / observational score (OS): propranolol 20 mg/kg i.p. or NBX 5.2, 10.4, 20.8 mg/kg p.o.; for Motion Power Percentage (MPP): except for NBX at 20.8 mg/kg total THC and CBD at the 20 minute timepoint
Method: Propranolol/Vehicle Control Group (n=12): The Propranolol/Harmaline Comparison Group protocol was repeated, except for administering, instead of harmaline, saline (vehicle) at 5 mL/kg.
Vehicle/Vehicle Control Group (n=6): The Experimental Group protocol was repeated, except for administering, instead of NBX, sesame oil (vehicle) at 2 mL/kg, and, instead of harmaline, saline (vehicle) at 5 mL/kg.
NBX/Vehicle Control Group (n=36 (12 at each dose)): The Experimental Group protocol was repeated, except for administering, instead of harmaline, saline (vehicle) at 5 mL/kg.
Tremor Index (“TI”=AP2−AP1); and Motion Power Percentage (“MPP” (%)=AP2/(AP1+AP2)×100). Further, for each subject, the following values were calculated: total number of tremor events (10 dBV threshold; sum of 20-, 40-, and 60-minute data); total average length of one tremor event (average of 20-, 40-, and 60-minute data); and total cumulative time of tremor events (sum of 20-, 40-, and 60-minute data), wherein “total” refers to combination of the 20-minute data, the 40-minute data, and the 60-minute data (e.g., “total cumulative time of tremor events” means total of the cumulative time of tremor events for the 20-minute data, the cumulative time of tremor events for the 40-minute data, and the cumulative time of tremor events for the 60-minute data). For the 20-, 40-, and 60-minute data independently, OS, MPP, and TI were analyzed by Kruskal-Wallis followed by Dunn's multiple comparison test. For the 20-, 40-, and 60-minuted data combined, the total number of tremor events, total average length (duration) of one tremor event, and total cumulative time spent in tremor were analyzed by Kruskal-Wallis followed by a Tukey's multiple comparison test. Results were considered significant for p<0.05. Outlier removal was not applied due to non-responders in the harmaline group which could not be identified in the treatment groups.

[2] = acute treatment, propranolol 20 mg/kg i.p., harmaline 10 mg/kg i.p., all timepoints (20, 40, 60 min), vs Vehicle/Harmaline group
[3] = sub-chronic treatment (10 days), propranolol 20 mg/kg i.p., harmaline 10 mg/kg i.p., all timepoints, vs Vehicle/Harmaline group
[4] = sub-chronic treatment, propranolol 20 mg/kg i.p., harmaline 10 mg/kg i.p., vs Vehicle/Harmaline group
[5] = harmaline 10 mg/kg i.p., acute treatment, all timepoints, Vehicle/Harmaline vs Vehicle/Vehicle group
[6] = harmaline 10 mg/kg i.p., acute treatment, sum of 20-, 40-, 60-minute data, Vehicle/Harmaline vs Vehicle/Vehicle group
[7] = harmaline 10 mg/kg i.p., sub-chronic treatment, all timepoints, Vehicle/Harmaline vs Vehicle/Vehicle group
[8] = harmaline 10 mg/kg i.p., sub-chronic treatment, sum of 20-, 40-, 60-minute data, Vehicle/Harmaline vs Vehicle/Vehicle group

## CC(C)NCC(O)COc1cccc2ccccc12 (stereo not drawn) [propranolol, Propranolol hydrochloride]
[1]; acute treatment, propranolol 20 mg/kg i.p. 30 min before harmaline 10 mg/kg i.p., 20, 40 and 60 min post-dose, vs Vehicle/Harmaline group
  observational score (OS): significantly decreased
[1]; [2]
  Motion Power Percentage (MPP): significantly decreased
  Tremor Index (TI): significantly decreased
[1]; acute treatment, propranolol 20 mg/kg i.p., harmaline 10 mg/kg i.p., vs Vehicle/Harmaline group, the only one of the three event measures significantly reduced
  total number of tremor events: significantly reduced
[1]; acutely
  tremor, as indexed by OS, TI, and MPP: significantly reduced
[1]; sub-chronically
  tremor, as indexed by OS, TI, and MPP: significantly reduced
[1]; [3]
  Motion Power Percentage (MPP): significantly decreased
  Tremor Index (TI): significantly decreased
[1]; sub-chronic treatment (once daily, 10 days), propranolol 20 mg/kg i.p., harmaline 10 mg/kg i.p., 20, 40 and 60 min, vs Vehicle/Harmaline group
  observational score (OS): significantly decreased
[1]; [4]
  total average length of one tremor event: significantly reduced
  total cumulative time of tremor events: significantly reduced
  total number of tremor events: significantly reduced
rats; acute treatment
  Tremor Index (TI): no significant effect
  observational score (OS): no significant effect
  Motion Power Percentage (MPP): no significant effect
rats; sub-chronic treatment
  Tremor Index (TI): no significant effect
  observational score (OS): no significant effect
  Motion Power Percentage (MPP): no significant effect

## COc1ccc2c3c([nH]c2c1)C(C)=NCC3 [harmaline, Harmaline]
[1]; harmaline 10 mg/kg i.p., acute treatment, 20, 40 and 60 min post-dose, Vehicle/Harmaline vs Vehicle/Vehicle group
  observational score (OS): significantly increased
[1]; [5]
  Motion Power Percentage (MPP): significantly increased
  Tremor Index (TI): significantly increased
[1]; harmaline 10 mg/kg i.p., acute treatment, average of 20-, 40-, 60-minute data, Vehicle/Harmaline vs Vehicle/Vehicle group
  total average length of one tremor event: significantly increased
[1]; [6]
  total cumulative time of tremor events: significantly increased
  total number of tremor events: significantly increased
[1]; harmaline 10 mg/kg i.p., sub-chronic treatment, 20, 40 and 60 min post-dose, Vehicle/Harmaline vs Vehicle/Vehicle group
  observational score (OS): significantly increased
[1]; [7]
  Motion Power Percentage (MPP): significantly increased
  Tremor Index (TI): significantly increased
[1]; harmaline 10 mg/kg i.p., sub-chronic treatment, average of 20-, 40-, 60-minute data, Vehicle/Harmaline vs Vehicle/Vehicle group
  total average length of one tremor event: significantly increased
[1]; [8]
  total cumulative time of tremor events: significantly increased
  total number of tremor events: significantly increased
